Source: paper PMC10610256, “Development and Preclinical Evaluation of [^68Ga]BMSH as a New Potent Positron Emission Tomography Tracer for Imaging Programmed Death-Ligand 1 Expression” (Pharmaceuticals, 2023)

How the values were obtained:
PD-L1 = target: T1, PD-L1 (Homo sapiens, UniProt Q9NZQ7); assay: Competitive cell-binding experiment against [^68Ga]BMSH; details: A549-hPDL1 cells, 60 min
T1 construct: expressed in transfected cells; host or cells: A549 cells stably transduced with hPD-L1 by lentivirus (A549-hPDL1)

[1] = tested on: A549-hPDL1 and A549 tumors; assay: Micro-PET imaging, A549-hPDL1 versus A549 tumors; format: in vivo, BALB/c nude mice; details: 60 min post-injection
Description: For biodistribution and micro-PET imaging studies of [^68Ga]BMSH and [^18F]FDG, male BALB/c nude mice were implanted subcutaneously with 1–5 × 10^6 A549-hPDL1 cells and A549 cells behind right armpit. Mice were imaged or used in biodistribution studies when the tumor xenografts reached 5–10 mm in diameter. Dynamic micro-PET imaging studies were conducted in tumor-bearing nude mice (A549-hPDL1 and A549, n = 3 in each group) using the Madiclab PSA146 PET/CT/FMT instrument (Linyi, China). The images were reconstructed using a three-dimensional ordered-subset expectation maximum (OSEM) algorithm and were converted to the percentage of injected dose per gram of tissue (%ID/g) images. Tumor-bearing mice were intravenously injected with [^68Ga]BMSH (7.4 MBq/mouse) and [^18F]FDG (5.55 MBq/mouse), respectively. For the blocking experiment, the A549-hPDL1 tumor-bearing mice were co-injected with NOTA-BMSH (100 µg/mouse) and [^68Ga]BMSH. For data analysis, the regions of interest (ROIs) were manually drawn over the tumor and major organs on decay-corrected whole-body coronal images using PMOD software (version 4.3, PMOD Technologies Ltd., Zurich, Switzerland).

T1 sequence (Q9NZQ7 19-290): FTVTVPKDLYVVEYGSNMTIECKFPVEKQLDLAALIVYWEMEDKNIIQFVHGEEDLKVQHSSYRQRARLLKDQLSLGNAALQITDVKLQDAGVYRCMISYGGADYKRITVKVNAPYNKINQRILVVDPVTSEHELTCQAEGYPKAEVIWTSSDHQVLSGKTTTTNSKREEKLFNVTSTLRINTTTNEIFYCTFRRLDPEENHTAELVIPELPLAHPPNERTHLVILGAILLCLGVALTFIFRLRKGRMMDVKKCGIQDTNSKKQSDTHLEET

IC50 (PD-L1) [nM] | A549-hPDL1 tumor/A549 tumor uptake ratio [1] | Compound
449 | – | CC(=O)NC1C(NC(=O)[C@H](CCC(=O)N[C@@H](CCC(=O)O)C(=O)N[C@@H](CC(=O)O)C(=O)NCCOCCOCC(=O)NCCNC(=O)[C@@H](CO)CNc2cc(C)c(OCc3cccc(-c4ccc5c(c4)OCCO5)c3C)cc2OCc2cccc(C#N)c2)NC(=O)COCCOCCNC(=O)CN2CCN(CC(=O)O)CCN(CC(=O)O)CC2)OC(CO)C(O)C1O (some centres unmarked) [NOTA-BMSH]
– | 1.08 | [^18F]FDG
